Data from patent US11917908B2, “Organic compound, optical device, light-emitting device, light-emitting apparatus, electronic device, and lighting device” (SEMICONDUCTOR ENERGY LABORATORY CO., LTD., priority 2019, dated 2024).

Columns and labels:
Assay type in all cases: physicochemical
[1] = Solubility in a solvent (toluene, 25° C.); conditions: for solubility: organic solvent or mixture, 1M
Description: The measurement results on the solubility of 3,10PCA2Nbf(IV)-02 and 3,10mmtBuPCA2Nbf(IV)-02 in a solvent are shown below. The solubility in the table are that in toluene at 25° C. Consequently, the organic compound of one embodiment of the present invention has improved solubility in a solvent owing to the bonding of the secondary or tertiary alkyl groups having 3 to 6 carbon atoms and having a branched carbon atom which is bonded to the phenyl group to the two meta-positions of the phenyl group bonded to the 9-position of the carbazolyl group. Thus, the organic compound of one embodiment of the present invention can be easily produced owing to the easy purification.

[2] = Thermogravimetry-differential thermal analysis (TG-DTA), weight reduction temperature; conditions: for Temperature at TG −5% (weight reduction temperature): weight reduced from initial weight by 5%; for Temperature at TG −5% (weight reduction temperature) / Temperature at TG −10% (weight reduction temperature) / Temperature at TG −50% (weight reduction temperature): 10 Pa, temperature rising rate 10° C./min; for Temperature at TG −10% (weight reduction temperature): weight reduced from initial weight by 10%; for Temperature at TG −50% (weight reduction temperature): weight reduced from initial weight by 50%
Description: The thermogravimetry-differential thermal analysis (TG-DTA) of these four substances was performed. The measurement was performed with a high vacuum differential type differential thermal balance (TG-DTA2410SA, produced by Bruker AXS K.K.). […] The temperatures of the time when the weight of the organic compounds is reduced from the initial weight by 5%, 10%, and 50% (weight reduction temperature) are shown in Table 3.

[3] = Behaviour at sublimation purification; conditions: at the time of sublimation purification

Structure (SMILES) | solubility [1] [mM] | Temperature at TG −5% (weight reduction temperature) [2] [°C] | Temperature at TG −10% (weight reduction temperature) [2] [°C] | Temperature at TG −50% (weight reduction temperature) [2] [°C] | Stability at sublimation purification [3] | Solubility 0.01M ([1]; 0.01M) | Solubility 0.1M ([1]; 0.1M) | Sublimability (from weight reduction temperatures) ([2]; comparison of the four substances of Table 3)
c1ccc(N(c2ccc3c(c2)oc2cc4cc5c(cc4cc23)oc2cc(N(c3ccccc3)c3ccc4c6ccccc6n(-c6ccccc6)c4c3)ccc25)c2ccc3c4ccccc4n(-c4ccccc4)c3c2)cc1 [3,10PCA2Nbf(IV)-02, 3,10-bis[N-(9-phenyl-9H-carbazol-2-yl)-N-phenylamino]naphtho[2,3-b;6,7-b′]bisbenzofuran] | < 10 | 398 | 411 | 442 | – | – | – | –
CCc1cc(CC)cc(-n2c3ccccc3c3ccc(N(c4ccccc4)c4ccc5c(c4)oc4cc6cc7c(cc6cc45)oc4cc(N(c5ccccc5)c5ccc6c8ccccc8n(-c8cc(CC)cc(CC)c8)c6c5)ccc47)cc32)c1 [3,10mmEtPCA2Nbf(IV)-02, N,N-bis[9-(3,5-diethylphenyl)-9H-carbazol-2-yl]-N,N-diphenyl-naphtho[2,3-b;6,7-b′]bisbenzofuran-3,10-diamine] | – | 380 | 402 | 436 | – | – | – | –
CCCCCCc1cc(CCCCCC)cc(-n2c3ccccc3c3ccc(N(c4ccccc4)c4ccc5c(c4)oc4cc6cc7c(cc6cc45)oc4cc(N(c5ccccc5)c5ccc6c8ccccc8n(-c8cc(CCCCCC)cc(CCCCCC)c8)c6c5)ccc47)cc32)c1 [3,10mmHexPCA2Nbf(IV)-02, N,N-bis[9-(3,5-dihexylphenyl)-9H-carbazol-2-yl]-N,N-diphenyl-naphtho[2,3-b;6,7-b′]bisbenzofuran-3,10-diamine] | – | 384 | 407 | 442 | decomposed at the time of sublimation purification | – | – | –
CC(C)(C)c1cc(-n2c3ccccc3c3ccc(N(c4ccccc4)c4ccc5c(c4)oc4cc6cc7c(cc6cc45)oc4cc(N(c5ccccc5)c5ccc6c8ccccc8n(-c8cc(C(C)(C)C)cc(C(C)(C)C)c8)c6c5)ccc47)cc32)cc(C(C)(C)C)c1 [3,10mmtBuPCA2Nbf(IV)-02, N,N-bis[9-(3,5-di-tert-butylphenyl)-9H-carbazol-2-yl]-N,N-diphenyl-naphtho[2,3-b;6,7-b′]bisbenzofuran-3,10-diamine] | < 1000 | 378 | 394 | 423 | – | ∘ | ∘ | highest sublimability
